According to patent publication US12161650B2, “Pharmaceutical compositions comprising a ryanodine receptor modulator and uses thereof” (priority 2021, dated 2024):

What was measured:
Assay type in all cases: in vivo, human (healthy male volunteers)
[1] = Phase 1 clinical trial, safety of single and repeated oral doses
Protocol: (§1) A Phase 1, randomized, double-blind, placebo-controlled clinical trial was performed to assess the safety and pharmacokinetics (PK) of Compound I after single, escalating, and repeated oral doses in health male volunteers.
The primary objective was to assess the safety of escalating single oral doses of Compound I compared with placebo in healthy male volunteers. The secondary objective was to measure plasma pharmacokinetic (PK) parameters of Compound I.
The primary objective was to assess the safety of escalating repeated oral doses of Compound I over 14 days compared with placebo in healthy male volunteers. The secondary objective was to measure plasma pharmacokinetic (PK) parameters of Compound I and to assess the concentration of Compound I in quadriceps muscle.

[2] = Phase 1 clinical trial, Part II multiple ascending doses over 14 days, plasma pharmacokinetics; settings: for Cmax / Tmax / AUC(0-t) / AUC / half-life: male, human, plasma; for AUC(0-t): read-out: AUC0-24
Protocol: as §1
(§2) 4-[(7-methoxy-2,3-dihydro-1,4-benzothiazepin-4(5H)yl)methyl]benzoic acid hemi-fumarate (Compound I) was administered in a gastro-resistant tablet according to Example 1. The formulation contained 20 mg, 40 mg, or 200 mg Compound I (based on the mass of 4-[(7-methoxy-2,3-dihydro-1,4-benzothiazepin-4(5H)yl)methyl]benzoic acid). Placebo tablet according to Example 4 was used as comparator.
In Part II, participants from groups I, J, K, and L received repeated doses of 20 mg, 60 mg, 120 mg, or 240 mg Compound I, respectively, or corresponding placebo once daily over a period of 14 days. Forty-one subjects completed Part II: 7/7/8/7 for cohorts I, J, K, L, and twelve placebo.
In Part II, blood samples were collected from each participant as follows: Day 1: 12 samples from the pre-morning dose up to 16 h (pre-dose, 0.25, 0.5, 1, 1.5, 2, 3, 4, 6, 8, 12, and 16 h), Days 2-13: 12 samples at pre-doses (i.e., morning dose); Day 14: 16 samples from the pre-morning dose up to 96 (D14 pre-dose, 0.25, 0.5, 1, 1.5, 2, 3, 4, 6, 8, 12, and 16 h and D15-18: 1 sample before theoretical morning dosing.
(§3) The area under the plasma concentration-time curve was calculated using a combined linear and logarithmic trapezoidal rule. The interpolation was linear in the constant and ascending parts of the plasma concentration-time profiles. The interpolation was logarithmic in the descending parts.
For Part II, the same approach was used on AUCτ (Day 14) respectively AUC24 (Day 1), and Cmax.
(§4) For each group and treatment, descriptive statistics (N, arithmetic mean, standard deviation, minimum, median, maximum, coefficient of variation, geometric mean, and geometric CV, as appropriate) were calculated for the concentrations and pharmacokinetic parameters of Compound I.
(§5) Plasma and muscle samples were analyzed by LC-MS/MS method.

[3] = Phase 1 clinical trial, Part I single ascending doses, plasma pharmacokinetics; settings: for Tmax / AUC(0-t) / Cmax / AUC / half-life: male, human, plasma; for AUC(0-t) / Cmax: Day 1, geom. mean; for AUC: Day 1, zero to infinity; for AUC / half-life: geom. mean; for half-life: read-out: t1/2, z (converted)
Protocol: as §1, §2
[…] Forty subjects completed part I: 30 active (6 per cohort) and 10 placebo.
In Part I, blood samples were collected from each participant as follows: at pre-dose, then 0.25, 0.5, 1, 1.5, 2, 3, 4, 5, 6, 8, 10, 12, 16, 24, 36, 48, 60, 72, and 96 hours after dosing.
as §3
For Part I, to assess the dose effect on the PK of Compound I, the mean AUClast, and Cmax for each dose were calculated and were plotted by dose.
as §4, §5

[4] = geometric means across dose groups 20-240 mg, 14-day repeated administration

With COc1ccc2c(c1)CN(Cc1ccc(C(=O)O)cc1)CCS2.O=C(O)/C=C/C(=O)O [Compound I, 4-[(7-methoxy-2,3-dihydro-1,4-benzothiazepin-4(5H)yl)methyl]benzoic acid hemifumarate] the Tolerability ([1]; at the doses and dose regimens tested) was “well tolerated”, the Serious adverse events ([1]; single doses up to 400 mg and repeated doses up to 240 mg/d for 14 days) was “No serious adverse events were reported” and the “Day at which steady-state was attained” value ([2]; 240 mg cohort) was 5 days. The “Day at which steady-state was attained” value ([2]; 20, 60, and 120 mg cohorts) was 4 days, the Time to steady-state ([2]; daily treatment, across cohorts) was 3 to 7 days and the “Accumulation ratio based on AUC” value [2, 4] was 1.4-1.8. The “Accumulation ratio based on Cmax” value [2, 4] was 1.4-1.8, the Cmax ([2]; oral, 20 mg, 20 mg once daily, Day 1, geom. mean (geom. % CV), n = 8) was 2200 ng/mL and the Tmax ([2]; oral, 20 mg, 20 mg once daily, Day 1, median (range), n = 8, read-out: tmax) was 2.52 h. For the same molecule, the Cmax ([2]; oral, 20 mg, 20 mg once daily, Day 14, geom. mean) was 3110 ng/mL, the Tmax ([2]; oral, 20 mg, 20 mg once daily, Day 14, median, read-out: tmax) was 3 h and the Cmax ([2]; oral, 60 mg, 60 mg once daily, Day 1, geom. mean) was 6090 ng/mL. For the same molecule, the Tmax ([2]; oral, 60 mg, 60 mg once daily, Day 1, median, read-out: tmax) was 3 h, the Cmax ([2]; oral, 60 mg, 60 mg once daily, Day 14, geom. mean) was 8840 ng/mL and the Tmax ([2]; oral, 60 mg, 60 mg once daily, Day 14, median, read-out: tmax) was 1.45 h. It also gave a Cmax ([2]; oral, 120 mg, 120 mg once daily, Day 1, geom. mean) of 11500 ng/mL, a Tmax ([2]; oral, 120 mg, 120 mg once daily, Day 1, median, read-out: tmax) of 3 h and a Cmax ([2]; oral, 120 mg, 120 mg once daily, Day 14, geom. mean) of 16300 ng/mL. For the same molecule, the Tmax ([2]; oral, 120 mg, 120 mg once daily, Day 14, median, read-out: tmax) was 3.5 h, the Cmax ([2]; oral, 240 mg, 240 mg once daily, Day 1, geom. mean) was 23900 ng/mL and the Tmax ([2]; oral, 240 mg, 240 mg once daily, Day 1, median, read-out: tmax) was 3 h. For the same molecule, the Cmax ([2]; oral, 240 mg, 240 mg once daily, Day 14, geom. mean) was 34900 ng/mL, the Tmax ([2]; oral, 240 mg, 240 mg once daily, Day 14, median, read-out: tmax) was 3 h and the AUC(0-t) ([2]; oral, 20 mg once daily (Treatment I), Day 1, geom. mean, n = 7) was 24.3 µg·h/mL. The AUC ([2]; oral, 20 mg once daily, Day 14, geom. mean) was 40.1 µg·h/mL, the half-life ([2]; oral, 20 mg once daily, Day 14, geom. mean, read-out: t1/2, z (converted)) was 19.3 h and the AUC(0-t) ([2]; oral, 60 mg once daily (Treatment J, n = 7), Day 1, geom. mean) was 69.2 µg·h/mL. For the same molecule, the AUC ([2]; oral, 60 mg once daily, Day 14, geom. mean) was 115 µg·h/mL, the half-life ([2]; oral, 60 mg once daily, Day 14, geom. mean, read-out: t1/2, z (converted)) was 19.7 h and the AUC(0-t) ([2]; oral, 120 mg once daily (Treatment K, n = 8), Day 1, geom. mean) was 138 µg·h/mL. The AUC ([2]; oral, 120 mg once daily, Day 14, geom. mean) was 221 µg·h/mL, the half-life ([2]; oral, 120 mg once daily, Day 14, geom. mean, read-out: t1/2, z (converted)) was 19.3 h and the AUC(0-t) ([2]; oral, 240 mg once daily (Treatment L, n = 7), Day 1, geom. mean) was 270 µg·h/mL. The AUC ([2]; oral, 240 mg once daily, Day 14, geom. mean) was 465 µg·h/mL, the half-life ([2]; oral, 240 mg once daily, Day 14, geom. mean, read-out: t1/2, z (converted)) was 19.8 h and the half-life ([2]; oral, based on the results of the single and repeat dose studies, read-out: Mean apparent terminal half-life (converted)) was roughly 20 h. The Tmax ([2]; po, after 14-days of repeated once daily oral administrations, across cohorts, read-out: median Tmax) was 3 to 4 h, the “Dose proportionality regarding AUCτ resp. AUC0-24 and Cmax” value ([2]; repeated doses, graphical inspections) was “dose proportionality” and the “Non-linearity with the time and dose” value ([2]; repeated oral administrations at 20, 60, 120, and 240 mg/d) was “No evidence of non-linearity with the time and dose was observed”. It also gave a Tmax ([3]; single oral administration at 20 to 400 mg, across doses, read-out: median Tmax) of 3 to 4.5 h, an AUC(0-t) ([3]; single oral dose 40 mg (Treatment A, n = 6)) of 68.7 µg·h/mL and a Cmax ([3]; single oral dose 40 mg) of 3940 ng/mL. It also gave a Tmax ([3]; single oral dose 40 mg, Day 1, median, read-out: tmax) of 3 h, an AUC ([3]; single oral dose 40 mg) of 71.7 µg·h/mL and a half-life ([3]; single oral dose 40 mg) of 20.9 h. It also gave an AUC(0-t) ([3]; single oral dose 80 mg (Treatment B, n = 6)) of 153 µg·h/mL, a Cmax ([3]; single oral dose 80 mg) of 6880 ng/mL and a Tmax ([3]; single oral dose 80 mg, Day 1, median, read-out: tmax) of 3 h. The AUC ([3]; single oral dose 80 mg) was 163 µg·h/mL, the half-life ([3]; single oral dose 80 mg) was 22.7 h and the AUC(0-t) ([3]; single oral dose 160 mg (Treatment C, n = 6)) was 304 µg·h/mL. It also gave a Cmax ([3]; single oral dose 160 mg) of 15500 ng/mL, a Tmax ([3]; single oral dose 160 mg, Day 1, median, read-out: tmax) of 3 h and an AUC ([3]; single oral dose 160 mg) of 312 µg·h/mL. It also gave a half-life ([3]; single oral dose 160 mg) of 17.5 h, an AUC(0-t) ([3]; single oral dose 240 mg (Treatment D, n = 6)) of 451 µg·h/mL and a Cmax ([3]; single oral dose 240 mg) of 24500 ng/mL. The Tmax ([3]; single oral dose 240 mg, Day 1, median, read-out: tmax) was 4.5 h, the AUC ([3]; single oral dose 240 mg) was 464 µg·h/mL and the half-life ([3]; single oral dose 240 mg) was 17.7 h. For the same molecule, the AUC(0-t) ([3]; single oral dose 400 mg (Treatment E, n = 6)) was 656 µg·h/mL, the Cmax ([3]; single oral dose 400 mg) was 35100 ng/mL and the Tmax ([3]; single oral dose 400 mg, Day 1, median, read-out: tmax) was 3.5 h. For the same molecule, the AUC ([3]; single oral dose 400 mg) was 708 µg·h/mL, the half-life ([3]; single oral dose 400 mg) was 18.7 h and the Tlag ([3]; single oral administration at 20 to 400 mg) was “less than 2 hours”. The Absorption ([3]; single oral administration of 20, 40, 80, 160, 240, and 400 mg, after a lag time) was “rapid absorption was observed”, the “Non-linearity with the dose” value ([3]; single oral doses) was “No evidence of non-linearity with the dose was observed” and the “Dose proportionality with regard to AUClast and Cmax” value ([3]; single oral doses, graphical inspections) was “dose proportionality”.
